Test results from paper PMC4546552 (ACS chemical biology, 2015).
Like-named read-outs stand apart in the source and are kept apart here. Values belong to the compound of their own block, whether it stands above or below them.

Legend:
[1] = target: T1, rat NAAA (r-NAAA) (Rattus norvegicus, UniProt Q5KTC7); details: cited from earlier work
T1 sequence (Q5KTC7 131-362 limits assumed): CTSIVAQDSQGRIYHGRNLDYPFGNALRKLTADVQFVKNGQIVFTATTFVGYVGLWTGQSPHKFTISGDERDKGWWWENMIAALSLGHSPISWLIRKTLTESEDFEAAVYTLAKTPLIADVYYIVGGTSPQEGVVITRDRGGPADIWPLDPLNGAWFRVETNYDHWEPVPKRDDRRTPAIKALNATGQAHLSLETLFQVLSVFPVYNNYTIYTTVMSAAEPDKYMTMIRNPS
T1 sequence (Q5KTC7 34-130 limits assumed): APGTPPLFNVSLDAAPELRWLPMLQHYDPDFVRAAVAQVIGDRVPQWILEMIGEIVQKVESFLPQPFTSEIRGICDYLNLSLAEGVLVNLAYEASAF

[2] = tested on: LPS-activated human macrophages; assay: LPS-activated human monocyte-derived macrophages; assay type: cell-based
[3] = target: T2, rat FAAH (Rattus norvegicus, UniProt P97612); assay: Rat FAAH inhibition; assay type: biochemical
T2 sequence (P97612 1-579): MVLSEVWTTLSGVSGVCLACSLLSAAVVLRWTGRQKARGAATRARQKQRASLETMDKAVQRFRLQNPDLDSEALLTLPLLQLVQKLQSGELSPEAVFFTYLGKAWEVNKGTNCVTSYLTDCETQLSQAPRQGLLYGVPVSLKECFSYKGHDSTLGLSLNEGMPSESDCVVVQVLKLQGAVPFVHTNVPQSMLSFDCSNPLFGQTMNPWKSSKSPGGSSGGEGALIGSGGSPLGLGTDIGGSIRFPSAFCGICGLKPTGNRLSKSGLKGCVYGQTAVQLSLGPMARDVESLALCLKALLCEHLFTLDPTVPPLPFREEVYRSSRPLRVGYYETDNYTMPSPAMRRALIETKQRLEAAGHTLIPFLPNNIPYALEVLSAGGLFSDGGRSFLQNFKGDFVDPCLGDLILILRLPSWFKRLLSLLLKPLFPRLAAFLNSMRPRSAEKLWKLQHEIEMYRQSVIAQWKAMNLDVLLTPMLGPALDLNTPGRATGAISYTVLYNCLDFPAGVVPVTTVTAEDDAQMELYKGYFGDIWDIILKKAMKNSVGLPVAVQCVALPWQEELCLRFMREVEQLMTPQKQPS

[4] = tested on: PEA and OEA levels; assay: PEA and OEA levels in mouse lungs; assay type: in vivo; details: 30 mg kg^−1 oral
[5] = Stability in rat liver microsomes; assay type: in vitro ADME
[6] = target: T3, NAAA (Mus musculus, UniProt Q9D7V9); assay: Ex vivo mouse NAAA activity after dosing; assay type: in vivo; details: mice
T3 sequence (Q9D7V9 34-362): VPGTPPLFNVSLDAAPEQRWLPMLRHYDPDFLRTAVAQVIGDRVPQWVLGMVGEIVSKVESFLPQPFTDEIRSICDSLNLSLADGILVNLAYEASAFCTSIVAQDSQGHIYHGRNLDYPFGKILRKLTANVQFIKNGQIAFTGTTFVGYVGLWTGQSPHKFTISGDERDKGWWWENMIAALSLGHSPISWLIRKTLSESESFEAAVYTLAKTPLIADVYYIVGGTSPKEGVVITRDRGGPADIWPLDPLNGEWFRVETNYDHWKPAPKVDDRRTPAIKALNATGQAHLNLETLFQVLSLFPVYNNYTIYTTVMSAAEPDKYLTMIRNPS

[7] = target: T4, NAAA (Rattus norvegicus, UniProt Q5KTC7); assay: In vivo NAAA acylation in rat lungs; details: rats, intravenous, 10 mg kg^−1
T4 sequence (Q5KTC7 131-362 limits assumed): T1 sequence (Q5KTC7 131-362 limits assumed)
T4 sequence (Q5KTC7 34-130 limits assumed): T1 sequence (Q5KTC7 34-130 limits assumed)

[8] = Stability in mouse liver microsomes; assay type: in vitro ADME
[9] = tested on: 79 commonly targeted ion channels, membrane transporters and receptors; assay: CEREP selectivity panel, channels, transporters, receptors; assay type: binding; details: 10 μM
[10] = tested on: panel of 28 biologically relevant targets comprising lipid-metabolizing and inflammation-related enzymes; assay: CEREP selectivity panel, enzymes; assay type: biochemical; details: 10 μM
[11] = tested on: carrageenan-induced inflammation; assay: Carrageenan-induced inflammation in mice; assay type: in vivo, mouse
[12] = target: T5, r-NAAA (Rattus norvegicus, UniProt Q5KTC7); assay: NAAA acylation in r-NAAA-overexpressing HEK-293 cells; assay type: cell-based; details: HEK-293 cells overexpressing r-NAAA, 10 μM, 1 h
T5 sequence (Q5KTC7 131-362 limits assumed): T1 sequence (Q5KTC7 131-362 limits assumed)
T5 sequence (Q5KTC7 34-130 limits assumed): T1 sequence (Q5KTC7 34-130 limits assumed)

[13] = Pharmacokinetic analyses in mice, intravenous; assay type: in vivo; details: mouse, plasma, 3 mg/kg
[14] = cited from earlier work
[15] = target: T6, human NAAA (h-NAAA) (Homo sapiens, UniProt Q02083); details: read-out: IC50 for human NAAA (h-NAAA); cited from earlier work
T6 sequence (Q02083 29-359): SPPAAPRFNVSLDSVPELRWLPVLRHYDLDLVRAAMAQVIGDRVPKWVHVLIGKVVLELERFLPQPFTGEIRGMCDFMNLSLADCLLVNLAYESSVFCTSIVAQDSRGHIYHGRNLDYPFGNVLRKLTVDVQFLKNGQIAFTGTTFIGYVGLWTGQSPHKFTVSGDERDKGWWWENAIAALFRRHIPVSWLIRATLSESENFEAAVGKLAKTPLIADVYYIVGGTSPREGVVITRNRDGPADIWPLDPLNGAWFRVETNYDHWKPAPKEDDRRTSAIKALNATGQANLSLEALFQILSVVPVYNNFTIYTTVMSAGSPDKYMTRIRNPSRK

[16] = tested on: rodent models; details: cited from earlier work

SMILES: O=C(CCc1ccccc1)N[C@H]1COC1=O [Compound 3, N-[(3S)-2-oxo-3-oxetanyl]-3-phenylpropanamide]
IC50 ([1]; read-out: IC50 for rat NAAA (r-NAAA)): ~420 nM

IC50 [3]: > 100000 nM
half-life [5]: < 5 min
inhibition of NAAA activity in various organs ([6]; intraperitoneal 3–30 mg kg^−1, 2 h): substantial inhibition of NAAA activity
inhibition of NAAA activity ex vivo ([6]; oral 30 mg kg^−1, 2 h): substantial inhibition of NAAA activity
formation of covalent NAAA adduct in lungs [7]: rapid formation of covalent adduct
half-life [8]: < 5 min
effect on 79 ion channels, membrane transporters and receptors [9]: no significant effect
interaction with panel of 28 enzymes [10]: did not interact
covalent adduct with N-terminal cysteine (Cys131) of NAAA [12]: covalent product
Cmax [13]: 1610 ng/mL
Vd [13]: 3.1 L/kg
clearance [13]: 139 mL/min/kg
half-life [13]: ~15 min
SMILES: O=C(N[C@H]1CNC1=O)OCCCCC1CCCCC1 [Compound 6, 4-Cyclohexylbutyl-N-[(S)-2-oxoazetidin-3-yl]carbamate]
LPS-induced expression of iNOS ([2]; CD68+ human macrophages, LPS 100 ng mL^−1, flow cytometry): significant concentration-dependent inhibition
LPS-induced release of TNF-α ([2]; CD68+ human macrophages, LPS, enzyme-linked immunoassay): significant concentration-dependent inhibition
LPS-induced TNF-α expression ([2]; human macrophages, LPS, flow cytometry): Concentration-dependent effects
OEA levels in lungs ([4]; carrageenan-challenged mice): markedly increased
PEA levels in lungs ([4]; carrageenan-challenged mice): markedly increased
OEA levels in lungs ([4]; naïve mice): no effect
PEA levels in lungs ([4]; naïve mice): no effect
anti-inflammatory effects under antagonism of CB1 or CB2 receptors ([11]; AM251 or AM630 1 mg kg^−1 i.p. 30 min before 6): did not prevent the anti-inflammatory effects
carrageenan-induced TNF-α levels in pleural exudate ([11]; mice, 1–30 mg kg^−1, oral): prevented both responses in a dose-dependent manner
carrageenan-induced lung tissue myeloperoxidase (MPO) activity ([11]; mice, 1–30 mg kg^−1, oral): prevented both responses in a dose-dependent manner

SMILES: C[C@@H]1C[C@H]2[C@@H]3CCC4=CC(=O)C=C[C@]4(C)[C@@]3(F)[C@@H](O)C[C@]2(C)[C@@]1(O)C(=O)CO [dexamethasone, reference compound]
carrageenan-induced lung MPO activity, effect relative to maximal effect of 6 ([11]; mice, 0.5 mg kg^−1, intraperitoneal): comparable

covalent adduct with N-terminal cysteine (Cys131) of NAAA [12]: only negligible amounts of the adduct
SMILES: O=C(N[C@@H]1CNC1=O)OCCCCC1CCCCC1 [Compound 7, 4-Cyclohexylbutyl-N-[(R)-2-oxoazetidin-3-yl]carbamate]
carrageenan-induced TNF-α levels in pleural exudate ([11]; mice, 30 mg kg^−1, oral): no such effect
carrageenan-induced lung tissue myeloperoxidase (MPO) activity ([11]; mice, 30 mg kg^−1, oral): no such effect

SMILES: C[C@@H]1OC(=O)[C@@H]1NC(=O)OCCCCCc1ccccc1 [Compound 4]
t1/2 in plasma [14]: < 1 min
IC50 [15]: ~7 nM
analgesic properties in rodent models [16]: marked analgesic properties
IC50 ([1]; read-out: IC50 for r-NAAA): ~50 nM
